Assays:
[1] = system: skin-derived CD11c^+CD103^+DCs; experiment: Transwell migration assay; format: cell-based, mouse
Description: Dendritic cell populations were isolated from lymph nodes and skin of naïve 6 week-old C57BL/6 mice. For this purpose, skin tissue was digested in a similar way as tumor tissue and\ cells from skin and lymph node were stained using the previously described protocol for cell sorting. Subsequently, living, CD45^+, CD11c^+, CD8α^− or CD8α^+ cells were isolated from the lymph node sample as well as living, CD45^+, CD11c^+, CD103^+ from skin samples. Migration assays were performed as described previously with minor adaptations using 5×10^5 cells/well and pre-treatment of DC with pertussis toxin (Sigma) at a final concentration of 20 ng/ml for 1.5 h in indicated (Spranger et al. Journal of immunology 185, 738-747 (2010); herein incorporated by reference in its entirety). As a migration stimulus, CCL4 (R&D) was added to RPMI complete medium at 500 ng/ml or 48 h conditioned media from BP or BPC cell lines were used. At the endpoint, cells from the lower compartment as well as the trans-well were harvested and counted using a standard Neubauer counting chamber. Percentage of migrated cells was calculated as followed: count lower-well/(count upper-well+ count lower-well)*100; with the sum of trans-well and lower well-being >90% of the input cell count.

[2] = system: β-catenin-negative tumors (BP-SIY); experiment: Migration of pertussis toxin-pretreated effector 2C T cells into tumor; format: in vivo, mouse; conditions: T cells treated 12 h with PTX before injection
Description: For adoptive T cell transfer experiments, tumor development was induced and transfer of 1×10^6 or 10×10^6 T cells was performed when tumors reached 600-1000 mm^3 (approx. 5-6 weeks after induction). Transferred T cells were isolated from gender-matched 2C donor mice using the Miltenyi CD8^+ enrichment Kit II for untouched CD8^+ T cell isolation. After isolation, cells were activated for three days through plate-bound CD3 (0.2 μg/ml; 145-2C11 clone; Biolegend) and CD28 (0.5 μg/ml; 37.51 clone; BD) antibodies. Following activation, T cells were stained with 1 μm CFSE-solution (eBioscience) for 8 min at 37° C. before intravenous injection. Tumor tissue, tumor-draining LNs, and spleen were harvested 3 days following adoptive transfer of T cells and used for flow cytometric analysis. […] For tumor tissues, the entirety of each sample was acquired and total number of CD3^+CD8^+ T cells and transferred 2C cells was assessed. The percentage 2C cells was calculated as [(100/CD3^+/CD8^+ T cells)*2C] and also the number of 2C cells per gram tumor. […]
To assess if lack of T cell infiltration was due to a defect in effector T cell recruitment, an adoptive T cell transfer approach was used, transferring in vitro-activated effector 2C T cells into tumor bearing BP-SIY and BPC-SIY mice. As a first assessment, only the capacity of the effector T cells to migrate into the tumor within 72 h was analyzed. […]

pertussis toxin
DC migration in response to CCL4 ([1]; pretreatment of DC with pertussis toxin): eliminated
migration of effector 2C T cells into tumor [2]: completely block the migration

B1: recombinant murine CCL4: CCL4 (R&D) added as migration stimulus at 500 ng/ml (protein)
chain: APMGSDPPTSCCFSYTSRQLHRSFVMDYYETSSLCSKPAVVFLTKRGRQICANPSEPWVTEYMSDLELN
DC migration ([1]; CCL4 as migration stimulus): migrated in response to CCL4
